The target of test [1] is T1, JAK1 (Homo sapiens, UniProt P23458).
T1 construct: purchased Carna Biosciences
The test is described as follows: Lance Ultra Kinase Assay, recombinant JAK1. Format: biochemical. Particulars: 5 mM ATP. As to the method:
(§1) Recombinant JAK1, JAK2, JAK3 and TYK2 purchased from Carna Biosciences. The inhibition potency of compounds against JAK1, JAK2, JAK3 and TYK2 was assessed using Lance Ultra Kinase Assay.
(§2) In brief, recombinant kinases were pre-incubated in the presence or absence of compound at room temperature for 15 minutes. The reaction was initiated by the addition of 5 mM ATP and substrate peptide which could be phosphorylated by kinases in the reaction. After 60 minutes incubation, the reaction was stopped by the addition of the detection reagent mix containing EDTA. The fluorescence was measured at 615 nm and 665 nm, respectively with excitation wavelength at 320 nm. The calculated signal ratio of 665 nm/615 nm is proportional to the kinase activity.

For test [2], the target named is T2, JAK2 (Homo sapiens, UniProt O60674).
T2 construct: purchased Carna Biosciences
T2 sequence (O60674 whole entry): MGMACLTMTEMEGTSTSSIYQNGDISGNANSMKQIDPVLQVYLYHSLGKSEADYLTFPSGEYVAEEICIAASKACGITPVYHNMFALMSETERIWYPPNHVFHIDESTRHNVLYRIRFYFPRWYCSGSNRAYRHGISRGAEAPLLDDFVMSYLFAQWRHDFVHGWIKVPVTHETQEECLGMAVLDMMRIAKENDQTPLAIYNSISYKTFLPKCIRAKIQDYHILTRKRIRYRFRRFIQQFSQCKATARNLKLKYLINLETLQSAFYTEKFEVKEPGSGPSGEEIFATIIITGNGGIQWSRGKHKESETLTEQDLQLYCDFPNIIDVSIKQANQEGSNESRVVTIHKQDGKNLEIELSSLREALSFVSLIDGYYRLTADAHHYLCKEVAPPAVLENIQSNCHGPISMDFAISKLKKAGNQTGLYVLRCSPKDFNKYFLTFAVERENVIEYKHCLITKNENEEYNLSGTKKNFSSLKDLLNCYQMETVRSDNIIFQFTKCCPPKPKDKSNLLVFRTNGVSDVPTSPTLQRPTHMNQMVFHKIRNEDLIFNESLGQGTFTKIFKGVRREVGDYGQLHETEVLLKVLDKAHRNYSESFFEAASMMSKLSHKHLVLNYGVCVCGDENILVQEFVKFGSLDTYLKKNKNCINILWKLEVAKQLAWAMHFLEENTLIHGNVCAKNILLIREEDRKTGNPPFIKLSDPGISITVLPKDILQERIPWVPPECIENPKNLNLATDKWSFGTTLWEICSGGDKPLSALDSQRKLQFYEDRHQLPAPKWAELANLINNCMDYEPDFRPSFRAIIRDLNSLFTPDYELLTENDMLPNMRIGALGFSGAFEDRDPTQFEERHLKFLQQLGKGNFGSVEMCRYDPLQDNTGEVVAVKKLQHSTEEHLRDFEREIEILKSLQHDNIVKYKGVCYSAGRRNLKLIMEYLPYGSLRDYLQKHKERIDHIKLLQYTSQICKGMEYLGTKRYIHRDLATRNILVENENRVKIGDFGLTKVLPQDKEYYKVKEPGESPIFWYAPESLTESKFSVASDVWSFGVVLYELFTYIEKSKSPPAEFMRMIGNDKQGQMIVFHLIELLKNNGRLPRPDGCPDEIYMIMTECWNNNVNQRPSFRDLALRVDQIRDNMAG
The test is described as follows: Lance Ultra Kinase Assay, recombinant JAK2. Format: biochemical. Particulars: 5 mM ATP. As to the method:
as §1, §2

The target in test [3] is T3, JAK3 (Homo sapiens, UniProt P52333).
T3 construct: purchased Carna Biosciences
T3 sequence (P52333 1-1124): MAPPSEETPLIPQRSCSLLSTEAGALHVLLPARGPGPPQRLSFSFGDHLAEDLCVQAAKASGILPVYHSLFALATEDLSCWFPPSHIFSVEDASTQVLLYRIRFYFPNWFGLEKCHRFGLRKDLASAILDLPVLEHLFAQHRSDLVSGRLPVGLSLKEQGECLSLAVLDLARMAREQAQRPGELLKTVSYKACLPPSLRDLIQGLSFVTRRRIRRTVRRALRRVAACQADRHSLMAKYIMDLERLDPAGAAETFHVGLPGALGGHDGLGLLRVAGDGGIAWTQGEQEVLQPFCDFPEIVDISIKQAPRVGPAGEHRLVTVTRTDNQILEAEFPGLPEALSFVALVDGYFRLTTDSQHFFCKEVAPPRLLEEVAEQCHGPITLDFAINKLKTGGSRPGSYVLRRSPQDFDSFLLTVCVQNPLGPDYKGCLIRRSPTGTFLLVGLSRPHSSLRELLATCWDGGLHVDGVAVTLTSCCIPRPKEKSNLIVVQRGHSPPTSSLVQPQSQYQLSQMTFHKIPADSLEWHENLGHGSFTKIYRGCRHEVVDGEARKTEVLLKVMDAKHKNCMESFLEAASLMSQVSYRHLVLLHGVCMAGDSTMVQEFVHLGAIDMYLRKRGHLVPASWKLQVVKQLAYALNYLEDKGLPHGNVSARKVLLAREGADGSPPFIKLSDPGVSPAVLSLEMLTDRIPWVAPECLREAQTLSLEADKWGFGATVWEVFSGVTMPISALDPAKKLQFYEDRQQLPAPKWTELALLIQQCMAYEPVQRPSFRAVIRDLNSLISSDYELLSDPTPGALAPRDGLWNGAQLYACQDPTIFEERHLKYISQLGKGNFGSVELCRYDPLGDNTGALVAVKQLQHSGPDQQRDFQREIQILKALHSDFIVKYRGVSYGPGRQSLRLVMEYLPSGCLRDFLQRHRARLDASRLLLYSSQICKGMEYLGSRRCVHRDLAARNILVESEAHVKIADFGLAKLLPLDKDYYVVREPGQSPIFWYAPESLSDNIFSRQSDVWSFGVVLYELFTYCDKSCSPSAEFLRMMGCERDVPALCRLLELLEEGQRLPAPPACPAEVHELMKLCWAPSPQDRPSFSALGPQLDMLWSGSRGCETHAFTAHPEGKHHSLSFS
In words: Lance Ultra Kinase Assay, recombinant JAK3. Format: biochemical. Particulars: 5 mM ATP. As to the method: as §1, §2

The target of test [4] is T4, TYK2 (Homo sapiens, UniProt P29597).
T4 construct: purchased Carna Biosciences
T4 sequence (P29597 whole entry): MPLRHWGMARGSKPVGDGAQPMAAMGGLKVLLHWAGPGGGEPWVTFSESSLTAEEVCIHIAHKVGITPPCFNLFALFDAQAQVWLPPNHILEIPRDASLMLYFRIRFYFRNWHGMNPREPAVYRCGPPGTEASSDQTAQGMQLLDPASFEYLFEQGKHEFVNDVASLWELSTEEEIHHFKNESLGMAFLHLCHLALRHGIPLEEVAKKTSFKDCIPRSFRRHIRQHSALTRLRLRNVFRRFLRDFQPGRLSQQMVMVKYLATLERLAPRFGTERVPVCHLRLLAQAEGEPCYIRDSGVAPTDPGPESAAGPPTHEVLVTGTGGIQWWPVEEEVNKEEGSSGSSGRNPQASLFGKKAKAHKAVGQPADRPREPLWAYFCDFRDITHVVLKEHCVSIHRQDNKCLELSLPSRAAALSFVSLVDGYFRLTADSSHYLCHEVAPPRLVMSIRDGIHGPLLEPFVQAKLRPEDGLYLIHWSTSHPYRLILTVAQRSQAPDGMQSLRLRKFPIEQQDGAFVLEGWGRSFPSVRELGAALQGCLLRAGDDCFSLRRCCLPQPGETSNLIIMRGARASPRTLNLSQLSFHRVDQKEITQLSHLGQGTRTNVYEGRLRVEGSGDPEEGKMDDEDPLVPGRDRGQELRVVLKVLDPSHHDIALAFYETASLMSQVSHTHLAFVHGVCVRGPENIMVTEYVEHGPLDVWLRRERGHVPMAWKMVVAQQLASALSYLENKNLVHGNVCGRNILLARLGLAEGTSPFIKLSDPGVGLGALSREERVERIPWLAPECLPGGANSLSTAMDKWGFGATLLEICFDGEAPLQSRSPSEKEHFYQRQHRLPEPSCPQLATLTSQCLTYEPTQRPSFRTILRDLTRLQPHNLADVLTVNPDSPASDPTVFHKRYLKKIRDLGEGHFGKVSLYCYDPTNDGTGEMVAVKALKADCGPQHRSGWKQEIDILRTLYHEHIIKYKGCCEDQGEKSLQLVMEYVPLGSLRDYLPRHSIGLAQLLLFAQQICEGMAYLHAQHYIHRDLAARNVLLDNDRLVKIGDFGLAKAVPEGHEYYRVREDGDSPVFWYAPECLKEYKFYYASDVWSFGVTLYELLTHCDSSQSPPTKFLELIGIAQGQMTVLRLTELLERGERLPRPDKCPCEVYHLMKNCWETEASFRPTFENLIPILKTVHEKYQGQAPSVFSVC
The test is described as follows: Lance Ultra Kinase Assay, recombinant TYK2. Format: biochemical. Particulars: 5 mM ATP. As to the method:
as §1, §2

Test [5] relates to phosphorylation of STAT6. In words: Cellular p-STAT6 assay, IL-13 stimulated THP-1 cells, flow cytometry. Particulars: Homo sapiens, THP-1, THP-1 cells, IL-13 10 ng/ml; read-out: pSTAT6 IC50. Format: cell-based. The method, then: To detect phosphorylated STAT6 (pSTAT6), THP-1 cells were harvested by centrifugation at 250 g for 5 min and resuspended in assay medium (RPMI1640+10% FBS) to 2×10^5 cells/well. Test compounds were applied to assay plates in serial dilution from 1 μM to 0.3 nM in DMSO. THP-1 cells were incubated with serial diluted compounds for 60 min at room temperature, followed by stimulation of interleukin (IL-13, 10 ng/ml) for 30 min, fixed in Cytofix buffer (BD Biosciences), and permeabilized in 90% methanol on ice. PE anti-pSTAT6 (BD Biosciences) antibodies were stained for 60 min at room temperature before being analyzed by flow cytometry. In the assay the compounds were thus diluted and dose-response curves for inhibition of the signal determine the IC50 for the compounds.
(In general: A flow cytometer gives signals particle by particle.)

Bounds are passed on as bounds.

Usually IC50 stands for the concentration needed to halve the response being measured.

T1 sequence (P23458 whole entry): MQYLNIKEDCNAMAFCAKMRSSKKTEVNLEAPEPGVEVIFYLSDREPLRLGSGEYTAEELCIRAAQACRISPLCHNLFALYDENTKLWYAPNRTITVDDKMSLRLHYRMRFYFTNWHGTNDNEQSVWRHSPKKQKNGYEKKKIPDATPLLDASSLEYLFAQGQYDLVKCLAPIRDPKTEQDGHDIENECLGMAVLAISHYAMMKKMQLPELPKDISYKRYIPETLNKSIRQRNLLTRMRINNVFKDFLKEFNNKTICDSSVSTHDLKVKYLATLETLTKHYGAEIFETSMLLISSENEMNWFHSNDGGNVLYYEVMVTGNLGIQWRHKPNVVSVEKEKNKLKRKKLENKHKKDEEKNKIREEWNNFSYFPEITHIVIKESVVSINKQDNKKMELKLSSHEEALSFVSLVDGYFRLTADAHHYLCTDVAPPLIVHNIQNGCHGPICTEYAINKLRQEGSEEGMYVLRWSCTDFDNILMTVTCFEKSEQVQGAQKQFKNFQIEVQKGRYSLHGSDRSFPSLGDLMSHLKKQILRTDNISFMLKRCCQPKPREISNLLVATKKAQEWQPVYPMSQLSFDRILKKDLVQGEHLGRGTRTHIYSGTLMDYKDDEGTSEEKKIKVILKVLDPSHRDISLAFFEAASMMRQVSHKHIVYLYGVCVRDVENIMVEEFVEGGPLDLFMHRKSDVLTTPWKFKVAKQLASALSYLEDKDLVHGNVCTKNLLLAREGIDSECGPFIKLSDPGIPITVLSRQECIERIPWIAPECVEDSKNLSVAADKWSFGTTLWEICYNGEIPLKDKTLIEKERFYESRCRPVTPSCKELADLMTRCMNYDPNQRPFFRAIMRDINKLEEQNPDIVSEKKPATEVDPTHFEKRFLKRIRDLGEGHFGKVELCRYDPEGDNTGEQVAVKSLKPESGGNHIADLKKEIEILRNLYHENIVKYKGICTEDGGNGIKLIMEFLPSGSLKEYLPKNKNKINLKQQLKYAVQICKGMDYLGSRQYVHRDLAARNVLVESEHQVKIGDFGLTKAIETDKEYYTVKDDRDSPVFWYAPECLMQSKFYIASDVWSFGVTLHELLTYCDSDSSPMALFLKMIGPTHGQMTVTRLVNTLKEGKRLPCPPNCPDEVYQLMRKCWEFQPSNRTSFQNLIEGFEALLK

`COC[C@H](C(=O)Nc1cccc2c(-c3nc(Nc4ccc5scnc5c4)ncc3F)c[nH]c12)N1CCN(C)CC1` [Example 26, (R)-N-(3-(2-(benzo[d]thiazol-5-ylamino)-5-fluoropyrimidin-4-yl)-1H-indol-7-yl)-3-methoxy-2-(4-methylpiperazin-1-yl)propanamide]: the IC50 is 0.07 nM in test [1]; 100 nM in test [2]; above 10000 nM in test [3]; 1260 nM in test [4]; 9.1 nM in test [5].
Take `COC[C@H](C(=O)Nc1cccc2c(-c3nc(Nc4cncc(O)c4)ncc3F)c[nH]c12)N1CCN(C)CC1` [Example 28, (R)-N-(3-(5-fluoro-2-((5-hydroxypyridin-3-yl)amino)pyrimidin-4-yl)-1H-indol-7-yl)-3-methoxy-2-(4-methylpiperazin-1-yl)propanainide]: the IC50 in test [1] was 0.12 nM; in test [2], 162 nM; in test [3], above 10000 nM; in test [4] it was 1180 nM; in test [5], 9.6 nM.
For `CCOC(=O)Cc1ccc(Nc2ncc(F)c(-c3c[nH]c4c(NC(=O)[C@@H](COC)N5CCN(C)CC5)cccc34)n2)cn1` [Example 31, ethyl (R)-2-(5-((5-fluoro-4-(7-(3-methoxy-2-(4-methylpiperazin-1-yl)propanamido)-1H-indol-3-yl)pyrimidin-2-yl)amino)pyridin-2-yl)acetate], the IC50 in test [1] was 0.15 nM; in test [2], 218 nM; in test [3], above 10000 nM; in test [4], 1310 nM; in test [5], 10.4 nM.
Consider `COC[C@H](C(=O)Nc1cccc2c(-c3nc(Nc4ccc5[nH]ncc5c4)ncc3F)c[nH]c12)N1CCN(C)CC1` [Example 32, (R)-N-(3-(2-((1H-indazol-5-yl)amino)-5-fluoropyrimidin-4-yl)-1H-indol-7-yl)-3-methoxy-2-(4-methylpiperazin-1-yl)propanamide], for which the IC50 in test [1] worked out at 0.16 nM; in test [2] it was 87 nM; in test [3] it was 9280 nM; in test [4], 1490 nM; in test [5], 10.6 nM.
Taken in the same sequence, the figures for `COC[C@H](C(=O)Nc1cccc2c(-c3nc(Nc4cnc(CO)c(OC)c4)ncc3F)c[nH]c12)N1CCN(C)CC1` [Example 34, (R)-N-(3-(5-fluoro-2-((6-(hydroxymethyl)-5-methoxypyridin-3-yl)amino)pyrimidin-4-yl)-1H-indol-7-yl)-3-methoxy-2-(4-methylpiperazin-1-yl)propanamide] were 0.18 nM, 12 nM, above 10000 nM, 447 nM and 11.3 nM.
Taken in the same sequence, the figures for `CNC(=O)Cc1ccc(Nc2ncc(F)c(-c3c[nH]c4c(NC(=O)[C@@H](COC)N5CCN(C)CC5)cccc34)n2)cn1` [Example 39, (R)-N-(3-(5-fluoro-2-((6-(2-(methylamino)-2-oxoethyl)pyridin-3-yl)amino)pyrimidin-4-yl)-1H-indol-7-yl)-3-methoxy-2-(4-methylpiperazin-1-yl)propanamide] were 0.23 nM, 316 nM, above 10000 nM, 974 nM and 11.9 nM.
For `COC[C@H](C(=O)Nc1cccc2c(-c3nc(Nc4ccc5[nH]ccc5c4)ncc3F)c[nH]c12)N1CCN(C)CC1` [Example 41, (R)-N-(3-(2-((1H-indol-5-yl)amino)-5-fluoropyrimidin-4-yl)-1H-indol-7-yl)-3-methoxy-2-(4-methylpiperazin-1-yl)propanamide] the same measures were 0.22 nM, 110 nM, above 10000 nM, 1430 nM and 12.6 nM.
Regarding `COC[C@H](C(=O)Nc1cccc2c(-c3nc(Nc4ccc5c(c4)CCOC5=O)ncc3F)c[nH]c12)N1CCN(C)CC1` [Example 42, (R)-N-(3-(5-fluoro-2-((1-oxoisochroman-6-yl)amino)pyrimidin-4-yl)-1H-indol-7-yl)-3-methoxy-2-(4-methylpiperazin-1-yl)propanamide], the IC50 is 0.07 nM in test [1]; 16 nM in test [2]; 5260 nM in test [3]; 560 nM in test [4]; 12.8 nM in test [5].
As to `COC[C@H](C(=O)Nc1cccc2c(-c3nc(Nc4ccc5c(C(=O)OC)n[nH]c5c4)ncc3F)c[nH]c12)N1CCN(C)CC1` [Example 44, methyl (R)-6-((5-fluoro-4-(7-(3-methoxy-2-(4-methylpiperazin-1-yl)propanamido)-1H-indol-3-yl)pyrimidin-2-yl)amino)-1H-indazole-3-carboxylate], the IC50 is 0.27 nM in test [1]; 147 nM in test [2]; above 10000 nM in test [3]; above 10000 nM in test [4]; 13.2 nM in test [5].
Take `COC[C@H](C(=O)Nc1cccc2c(-c3nc(Nc4ccc5c(CO)ncn5c4)ncc3F)c[nH]c12)N1CCN(C)CC1` [Example 46, (R)-N-(3-(5-fluoro-2-((1-(hydroxymethyl)imidazo[1,5-a]pyridin-6-yl)amino)pyrimidin-4-yl)-1H-indol-7-yl)-3-methoxy-2-(4-methylpiperazin-1-yl)propanainide]: the IC50 in test [1] was 1.52 nM; in test [2] it was 322 nM; in test [3], above 10000 nM; in test [4], above 10000 nM; in test [5], 13.5 nM.
On to `COC[C@H](C(=O)Nc1cccc2c(-c3nc(Nc4ccc5ncsc5c4)ncc3F)c[nH]c12)N1CCN(C)CC1` [Example 47, (R)-N-(3-(2-(benzo[d]thiazol-6-ylamino)-5-fluoropyrimidin-4-yl)-1H-indol-7-yl)-3-methoxy-2-(4-methylpiperazin-1-yl)propanamide], for which the IC50 in test [1] was 0.13 nM; in test [2], 81 nM; in test [3], above 10000 nM; in test [4], 556 nM; in test [5], 14 nM.
Take `COC[C@H](C(=O)Nc1cccc2c(-c3nc(Nc4ccc5ncoc5c4)ncc3F)c[nH]c12)N1CCN(C)CC1` [Example 50, (R)-N-(3-(2-(benzo[d]oxazol-6-ylamino)-5-fluoropyrimidin-4-yl)-1H-indol-7-yl)-3-methoxy-2-(4-methylpiperazin-1-yl)propanamide]: the IC50 in test [1] is 0.11 nM; in test [2] it was 119 nM; in test [3], above 10000 nM; in test [4] it was 772 nM; in test [5], 14.4 nM.
Turning to `COC[C@H](C(=O)Nc1cccc2c(-c3nc(Nc4ccc5ocnc5c4)ncc3F)c[nH]c12)N1CCN(C)CC1` [Example 51, (R)-N-(3-(2-(benzo[d]oxazol-5-ylamino)-5-fluoropyrimidin-4-yl)-1H-indol-7-yl)-3-methoxy-2-(4-methylpiperazin-1-yl)propanamide], the IC50 in test [1] was 0.23 nM; in test [2] it was 186 nM; in test [3], above 10000 nM; in test [4], 1400 nM; in test [5] it was 14.9 nM.

(Values after patent US12606544B2, “JAK1 selective kinase inhibitor” (DIZAL (JIANGSU) PHARMACEUTICAL CO., LTD., priority 2019, dated 2026).)
